Measured values: patent US20120214834A1, “IMMUNE ENHANCEMENT COMPOSITION AND KIT AND USE THEREOF” (priority 2011, published 2012)

Tested on: Human erythromyeloblastoid leukemia cell line K562 (target cells of NK cells)
Test: Activity of NK cells against pre-treated K562 target cells, by flow cytometer (PKH67-GL / PI)
Assay type: cell-based
Conditions: K562 target cells treated with 10 nM rapamycin alone for 48 hours; effector:target 25:1, 16 hours co-culture
Procedure: Select Human erythromyeloblastoid leukemia cell line K562 as target cells and culture it by tissue culture technique in RPMI 1640 supplemented with 10% FBS to a proper amount. And then, take a suspension containing 1×10^6 cells and inoculate it in a 6-wells plate. […] And then, put the plate into a 37° C. incubator to continue culturing for 48 hours.
Use 1 mM of green fluorescent cell linker dye PKH67-GL(Sigma-Aldrich), which resolves in alcohol, to label the aforementioned cells. The detail steps are: resuspend 1×10^6 cells in 1 ml of Diluent C(Sigma-Aldrich), add PKH67-GL until the density reaches 4×10^−6 M and dye for 4 minutes under 25 °C. Add 1 ml FBS and 2 ml complete medium to end the coloring reaction, then wash it with PBS for three times. And then, dilute the amount of cells in a complete medium until it reaches 2.5×10^5 cells per ml and confirm the labeling and activity of cells by a Flow cytometer.
Dilute the amount of NK cells (the effector cell of the present Experimental Example) to 6.25×10^6 per ml. Mix 100 μl of the aforementioned diluted cell solution with 100 μl of the target cell solution so that the ratio of effector cells and target cells reaches 25:1. Put the mixed cells in a cell culture and culture for 16 hours in a 37□ incubator with 5% CO2. […]

## CO[C@H]1C[C@@H]2CC[C@@H](C)[C@@](O)(O2)C(=O)C(=O)N2CCCC[C@H]2C(=O)O[C@H]([C@H](C)C[C@@H]2CC[C@@H](O)[C@H](OC)C2)CC(=O)[C@H](C)/C=C(\C)[C@@H](O)[C@@H](OC)C(=O)[C@H](C)C[C@H](C)/C=C/C=C/C=C/1C [rapamycin]
  activity ratio of NK cells, increase over Control: 15%
